Source: US5866700A, “Solid-phase synthesis of oligoribonucleotides” (Hoechst Aktiengesellschaft, priority 1993, dated 1999)

assay: Stability test: half-life for deprotection in 80% acetic acid (Table 2); format: physicochemical; details: 30 mmolar solution, 20° C., Values +/- 5%
Method: (§1) To test the stability, the following uridine derivatives were incubated in 0.05N HCl/MeOH (1:2), 30 mmolar solution, 20° C., pH 2.0 (Table 1) or in 80% acetic acid, 30 mmolar solution, 20° C. (Table 2) and the half-life for deprotection was determined: […]

Row | t1/2 (half-life for deprotection) [h] | Compound
1 | 18.8 | CC(OCc1c(Cl)cccc1Cl)O[C@@H]1[C@H](O)[C@@H](CO)O[C@H]1n1ccc(=O)[nH]c1=O (stereo partly shown)
2 | 0.35 | CC(OCc1ccc(O)cc1)O[C@@H]1[C@H](O)[C@@H](CO)O[C@H]1n1ccc(=O)[nH]c1=O (stereo partly shown)
3 | 0.917 | CC(OCc1ccc(O)c(Cl)c1)O[C@@H]1[C@H](O)[C@@H](CO)O[C@H]1n1ccc(=O)[nH]c1=O (stereo partly shown)
4 | 4.17 | CC(OCc1cc(Cl)c(O)cc1Cl)O[C@@H]1[C@H](O)[C@@H](CO)O[C@H]1n1ccc(=O)[nH]c1=O (stereo partly shown)
5 | 5.08 | CC(OCc1ccc(OC(=O)OCCc2ccc([N+](=O)[O-])cc2)c(F)c1)O[C@@H]1[C@H](O)[C@@H](CO)O[C@H]1n1ccc(=O)[nH]c1=O (stereo partly shown)
6 | 1.1 | CC(OCc1ccccc1)O[C@@H]1[C@H](O)[C@@H](CO)O[C@H]1n1ccc(=O)[nH]c1=O (stereo partly shown) [drawing 64]
7 | 0.8 | CC(OCc1ccc(O)c(F)c1)O[C@@H]1[C@H](O)[C@@H](CO)O[C@H]1n1ccc(=O)[nH]c1=O (stereo partly shown)
8 | 1.73 | CC(OCc1ccc(OC(=O)OCCc2ccc([N+](=O)[O-])cc2)cc1)O[C@@H]1[C@H](O)[C@@H](CO)O[C@H]1n1ccc(=O)[nH]c1=O (stereo partly shown)
9 | 22.58 | CC(OCc1cc(Cl)c(OC(=O)C(C)(C)C)cc1Cl)O[C@@H]1[C@H](O)[C@@H](CO)O[C@H]1n1ccc(=O)[nH]c1=O (stereo partly shown)
10 | 21.67 | CC(OCc1cc(Cl)c(OC(=O)OCCc2ccc([N+](=O)[O-])cc2)cc1Cl)O[C@@H]1[C@H](O)[C@@H](CO)O[C@H]1n1ccc(=O)[nH]c1=O (stereo partly shown)

assay: Stability test: half-life for deprotection in 0.05N HCl/MeOH (Table 1); format: physicochemical; details: 0.05N HCl/MeOH (1:2), 30 mmolar solution, 20° C., pH 2.0; values +/- 10%
Method: as §1

Row | t1/2 (half-life for deprotection) | Compound
11 | 3.7 h | CC(OCCc1ccc([N+](=O)[O-])cc1)O[C@@H]1[C@H](O)[C@@H](CO)O[C@H]1n1ccc(=O)[nH]c1=O (stereo partly shown)
12 | 14 h | CC(OCCN1C(=O)c2ccccc2C1=O)O[C@@H]1[C@H](O)[C@@H](CO)O[C@H]1n1ccc(=O)[nH]c1=O (stereo partly shown)
13 | 67.17 h | CC(OCC[N+](=O)[O-])O[C@@H]1[C@H](O)[C@@H](CO)O[C@H]1n1ccc(=O)[nH]c1=O (stereo partly shown) [CH2CH2NO2]
14 | 32.67 h | CC(OCc1ccc([N+](=O)[O-])cc1)O[C@@H]1[C@H](O)[C@@H](CO)O[C@H]1n1ccc(=O)[nH]c1=O (stereo partly shown)
15 | 52 h | CC(OCCS(=O)(=O)c1ccccc1)O[C@@H]1[C@H](O)[C@@H](CO)O[C@H]1n1ccc(=O)[nH]c1=O (stereo partly shown)
16 | 37.33 h | CC(OCc1ccccc1[N+](=O)[O-])O[C@@H]1[C@H](O)[C@@H](CO)O[C@H]1n1ccc(=O)[nH]c1=O (stereo partly shown)
17 | 52 h | CC(OCCS(C)(=O)=O)O[C@@H]1[C@H](O)[C@@H](CO)O[C@H]1n1ccc(=O)[nH]c1=O (stereo partly shown)
18 | 10.3 h | CC(OCCCl)O[C@@H]1[C@H](O)[C@@H](CO)O[C@H]1n1ccc(=O)[nH]c1=O (stereo partly shown) [CH2CH2Cl]
19 | 2.92 h | CC(OCc1ccccc1)O[C@@H]1[C@H](O)[C@@H](CO)O[C@H]1n1ccc(=O)[nH]c1=O (stereo partly shown) [drawing 52]
20 | 3.83 h | CC(OCCSc1ccccc1)O[C@@H]1[C@H](O)[C@@H](CO)O[C@H]1n1ccc(=O)[nH]c1=O (stereo partly shown)
21 | 56.17 h | CC(OCCC#N)O[C@@H]1[C@H](O)[C@@H](CO)O[C@H]1n1ccc(=O)[nH]c1=O (stereo partly shown) [CH2 CH2CN]
22 | 1.22 h | COc1ccc(COC(C)O[C@@H]2[C@H](O)[C@@H](CO)O[C@H]2n2ccc(=O)[nH]c2=O)cc1 (stereo partly shown)
23 | 1.37 h | COc1ccc(COC(C)O[C@@H]2[C@H](O)[C@@H](CO)O[C@H]2n2ccc(=O)[nH]c2=O)cc1OC (stereo partly shown)

Row | Compound | t1/2 (half-life for deprotection)
24 | CC(OCCc1ccc([N+](=O)[O-])cc1[N+](=O)[O-])O[C@@H]1[C@H](O)[C@@H](CO)O[C@H]1n1ccc(=O)[nH]c1=O (stereo partly shown) | approx. 1200 min
25 | CC(OCc1ccc([N+](=O)[O-])cc1[N+](=O)[O-])O[C@@H]1[C@H](O)[C@@H](CO)O[C@H]1n1ccc(=O)[nH]c1=O (stereo partly shown) | approx. 14000 min
